Our source for the SHP2% degradation values is patent US20260144788A1, “COMPOUND FOR SHP2 PROTEIN DEGRADATION AND MEDICAL USES THEREOF” (UBIX THERAPEUTICS, INC., priority 2022, published 2026).

The assay concerns the target T1, SHP2 protein (Homo sapiens, UniProt Q06124).
T1 sequence (Q06124 1-593): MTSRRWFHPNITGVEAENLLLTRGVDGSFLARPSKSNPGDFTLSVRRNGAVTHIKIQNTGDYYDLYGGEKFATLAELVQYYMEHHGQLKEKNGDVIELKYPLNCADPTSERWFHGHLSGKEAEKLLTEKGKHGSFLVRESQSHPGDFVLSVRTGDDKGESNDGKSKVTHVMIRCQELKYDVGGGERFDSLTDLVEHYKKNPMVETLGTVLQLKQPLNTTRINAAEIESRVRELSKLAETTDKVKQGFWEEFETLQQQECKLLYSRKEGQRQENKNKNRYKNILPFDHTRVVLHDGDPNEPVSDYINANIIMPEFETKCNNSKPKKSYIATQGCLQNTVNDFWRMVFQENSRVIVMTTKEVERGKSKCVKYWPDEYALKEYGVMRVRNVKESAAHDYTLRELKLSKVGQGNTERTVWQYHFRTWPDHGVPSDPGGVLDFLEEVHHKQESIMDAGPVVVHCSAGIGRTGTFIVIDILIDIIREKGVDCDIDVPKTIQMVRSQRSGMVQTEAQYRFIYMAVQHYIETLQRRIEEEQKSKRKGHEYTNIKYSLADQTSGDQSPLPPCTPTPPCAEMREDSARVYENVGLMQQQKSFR
The assay can be described thus: Measurement of SHP2 protein degradation in MV-4-11 cells (western blotting). The assay is classed as cell-based. On the set-up: endogenous in cells. The note with it: harvested after 24 hours. Put shortly:
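MV-4-11 cells in IMDM/5% FBS were exposed to compound at final 0.01, 0.1, 1 μM or 0.001, 0.01, 0.1 μM for 24 h, DMSO as negative control. BCA-normalised lysates were immunoblotted for SHP2 with GAPDH as loading control, read on LI-COR Odyssey.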
(In western blotting, separated proteins are transferred to a membrane and probed.)

Consider `Cc1ncsc1-c1ccc(CNC(=O)[C@@H]2C[C@@H](O)CN2C(=O)[C@@H](NC(=O)C2(F)CC2)C(C)(C)C)c(O[C@H]2CC[C@H](C(=O)N3CC(Nc4cccc(Oc5cnc(N6CCC(C)(CN)CC6)cn5)c4Cl)C3)CC2)c1` [Example 16, (2S,4R)—N-(2-(((1R,4S)-4-(3-((3-((5-(4-(aminomethyl)-4-methylpiperidin-1-yl)pyrazin-2-yl)oxy)-2-chlorophenyl)amino)azetidine-1-carbonyl)cyclohexyl)oxy)-4-(4-methylthiazol-5-yl)benzyl)-1-((S)-2-(1-fluorocyclopropane-1-carboxamido)-3,3-dimethylbutanoyl)-4-hydroxypyrrolidine-2-carboxamide], for which the SHP2% degradation by setting is: (0.01 μM) −30.1%; (0.1 μM) 94.3%.
For `Cc1ncsc1-c1ccc(CNC(=O)[C@@H]2C[C@@H](O)CN2C(=O)[C@@H](NC(=O)C2(F)CC2)C(C)(C)C)c(O[C@H]2CC[C@H](C(=O)N3CCC(Nc4cccc(Sc5cnc(N6CCC(C)(CN)CC6)cn5)c4Cl)CC3)CC2)c1` [Example 17, (2S,4R)—N-(2-(((1R,4S)-4-(4-((3-((5-(4-(aminomethyl)-4-methylpiperidin-1-yl)pyrazin-2-yl)thio)-2-chlorophenyl)amino)piperidine-1-carbonyl)cyclohexyl)oxy)-4-(4-methylthiazol-5-yl)benzyl)-1-((S)-2-(1-fluorocyclopropane-1-carboxamido)-3,3-dimethylbutanoyl)-4-hydroxypyrrolidine-2-carboxamide] the same measures were 64.4% and 96.6%.
In the same order, the values of `Cc1ncsc1-c1ccc(CNC(=O)[C@@H]2C[C@@H](O)CN2C(=O)[C@@H](NC(=O)C2(F)CC2)C(C)(C)C)c(O[C@H]2CC[C@H](C(=O)N3CC(CNc4cccc(Sc5cnc(N6CCC(C)(CN)CC6)cn5)c4Cl)C3)CC2)c1` [Example 18, (2S,4R)—N-(2-(((1R,4S)-4-(3-(((3-((5-(4-(aminomethyl)-4-methylpiperidin-1-yl)pyrazin-2-yl)thio)-2-chlorophenyl)amino)methyl)azetidine-1-carbonyl)cyclohexyl)oxy)-4-(4-methylthiazol-5-yl)benzyl)-1-((S)-2-(1-fluorocyclopropane-1-carboxamido)-3,3-dimethylbutanoyl)-4-hydroxypyrrolidine-2-carboxamide] are 63.2% and 98.4%.
In the same order, the values of `Cc1ncsc1-c1ccc(CNC(=O)[C@@H]2C[C@@H](O)CN2C(=O)[C@@H](NC(=O)C2(F)CC2)C(C)(C)C)c(O[C@H]2CC[C@H](C(=O)N3CCC(CNc4cccc(Sc5cnc(N6CCC(C)(CN)CC6)cn5)c4Cl)CC3)CC2)c1` [Example 19, (2S,4R)—N-(2-(((1R,4S)-4-(4-(((3-((5-(4-(aminomethyl)-4-methylpiperidin-1-yl)pyrazin-2-yl)thio)-2-chlorophenyl)amino)methyl)piperidine-1-carbonyl)cyclohexyl)oxy)-4-(4-methylthiazol-5-yl)benzyl)-1-((S)-2-(1-fluorocyclopropane-1-carboxamido)-3,3-dimethylbutanoyl)-4-hydroxypyrrolidine-2-carboxamide] are 50.4% and 95.7%.
Regarding `Cc1ncsc1-c1ccc(CNC(=O)[C@@H]2C[C@@H](O)CN2C(=O)[C@@H](NC(=O)C2(F)CC2)C(C)(C)C)c(O[C@H]2CC[C@H](C(=O)N3CC(Nc4nccc(Sc5cnc(N6CCC(C)(CN)CC6)cn5)c4Cl)C3)CC2)c1` [Example 20, (2S,4R)—N-(2-(((1R,4S)-4-(3-((4-((5-(4-(aminomethyl)-4-methylpiperidin-1-yl)pyrazin-2-yl)thio)-3-chloropyridin-2-yl)amino)azetidine-1-carbonyl)cyclohexyl)oxy)-4-(4-methylthiazol-5-yl)benzyl)-1-((S)-2-(1-fluorocyclopropane-1-carboxamido)-3,3-dimethylbutanoyl)-4-hydroxypyrrolidine-2-carboxamide], the SHP2% degradation turned out to be 78.8% (0.01 μM) and 98.2% (0.1 μM).
For `Cc1ncsc1-c1ccc(CNC(=O)[C@@H]2C[C@@H](O)CN2C(=O)[C@@H](NC(=O)C2(F)CC2)C(C)(C)C)c(O[C@H]2CC[C@H](C(=O)N3CC(Nc4nccc(Sc5cnc(N6CCC(C)(N)CC6)cn5)c4Cl)C3)CC2)c1` [Example 21, (2S,4R)—N-(2-(((1R,4S)-4-(3-((4-((5-(4-amino-4-methylpiperidin-1-yl)pyrazin-2-yl)thio)-3-chloropyridin-2-yl)amino)azetidine-1-carbonyl)cyclohexyl)oxy)-4-(4-methylthiazol-5-yl)benzyl)-1-((S)-2-(1-fluorocyclopropane-1-carboxamido)-3,3-dimethylbutanoyl)-4-hydroxypyrrolidine-2-carboxamide] the same measures were 81.1% and 99.7%.
For `Cc1ncsc1-c1ccc(CNC(=O)[C@@H]2C[C@@H](O)CN2C(=O)[C@@H](NC(=O)C2(F)CC2)C(C)(C)C)c(O[C@H]2CC[C@H](C(=O)N3CCC(Nc4nccc(Sc5cnc(N6CCC(C)(CN)CC6)cn5)c4Cl)CC3)CC2)c1` [Example 23, (2S,4R)—N-(2-(((1R,4S)-4-(4-((4-((5-(4-(aminomethyl)-4-methylpiperidin-1-yl)pyrazin-2-yl)thio)-3-chloropyridin-2-yl)amino)piperidine-1-carbonyl)cyclohexyl)oxy)-4-(4-methylthiazol-5-yl)benzyl)-1-((S)-2-(1-fluorocyclopropane-1-carboxamido)-3,3-dimethylbutanoyl)-4-hydroxypyrrolidine-2-carboxamide] the same measures were 74.2% and 99.8%.
For `Cc1ncsc1-c1ccc(CNC(=O)[C@@H]2C[C@@H](O)CN2C(=O)[C@@H](NC(=O)C2(F)CC2)C(C)(C)C)c(O[C@H]2CC[C@H](C(=O)N3CCC(Nc4nccc(Sc5cnc(N6CCC(C)(N)CC6)cn5)c4Cl)CC3)CC2)c1` [Example 24, (2S,4R)—N-(2-(((1R,4S)-4-(4-((4-((5-(4-amino-4-methylpiperidin-1-yl)pyrazin-2-yl)thio)-3-chloropyridin-2-yl)amino)piperidine-1-carbonyl)cyclohexyl)oxy)-4-(4-methylthiazol-5-yl)benzyl)-1-((S)-2-(1-fluorocyclopropane-1-carboxamido)-3,3-dimethylbutanoyl)-4-hydroxypyrrolidine-2-carboxamide], the SHP2% degradation is reported as 83.1% (0.01 μM) and 100.0% (0.1 μM).
On to `Cc1ncsc1-c1ccc(CNC(=O)[C@@H]2C[C@@H](O)CN2C(=O)[C@@H](NC(=O)C2(F)CC2)C(C)(C)C)c(O[C@H]2CC[C@H](C(=O)N3CCN(c4nccc(Sc5cnc(N6CCC(C)(CN)CC6)cn5)c4Cl)CC3)CC2)c1` [Example 26, (2S,4R)—N-(2-(((1R,4S)-4-(4-(4-((5-(4-(aminomethyl)-4-methylpiperidin-1-yl)pyrazin-2-yl)thio)-3-chloropyridin-2-yl)piperazine-1-carbonyl)cyclohexyl)oxy)-4-(4-methylthiazol-5-yl)benzyl)-1-((S)-2-(1-fluorocyclopropane-1-carboxamido)-3,3-dimethylbutanoyl)-4-hydroxypyrrolidine-2-carboxamide], for which the SHP2% degradation runs as follows: (0.01 μM) 52.3%; (0.1 μM) 96.1%.
